In US20240425512A1, “NITROGEN-CONTAINING HETEROCYCLIC COMPOUND, PHARMACEUTICAL COMPOSITION THEREOF AND APPLICATION THEREOF” (280 Bio, Inc., priority 2023, published 2024) one finds IC50 data, which are given here for 19 compounds.

What is called IC50 is the midpoint of a concentration-inhibition curve.

The structures appear in SMILES notation. Where two headings read alike, the source gives them in different places.

What all share (format): cell-based
For experiment [1], the system named is AGS gastric cancer cell line with KRAS G12D mutation. The experiment can be described thus: Proliferation inhibition on RAS cell lines measured by CTG (CellTiter Glo), AGS. The following applies: Table 1, AGS cells, incubated for 5 days. The source says: (§1) NCI-H358 is a human non-small cell lung cancer cell line with KRAS G12C mutation; AGS is a gastric cancer cell line with KRAS G12D mutation; SW620 is a colon cancer cell with KRAS G12V mutation; NCI-H460 is a non-small cell lung cancer cell with KRAS Q61H mutation; MKN1 is a wild-type gastric cancer cell with KRAS-amplified; LS513 is a colon cancer cell with KRAS G12D mutation; LoVo is a colon cancer cell with KRAS G13D mutation; NCI-H441 is a lung cancer cell with KRAS G12V mutation, and Capan-2 is a pancreatic cancer cell with KRAS G12V mutation.
(§2) The proliferation inhibitory effect of the compounds on various mutations was evaluated by determining the proliferation inhibitory activity of the compounds on these cell lines.
(§3) The assay was conducted on either 384-well plates or 96-well plates. The procedures are as follows:
(§4) The cell suspensions were added to 384- or 96-well plates (384-well plate: 50 μL; 96-well plate: 100 μL) except for peripheral wells. The plates were placed in a carbon dioxide incubator overnight. NCI-H358, AGS, NCI-H460, MKN-1, LS513, LoVo, and NCI-H441 were placed in a 5%, 370 carbon dioxide incubator overnight, and SW620 was placed in a 0%, 370 carbon dioxide incubator overnight. The HPD300 micro-dosing instrument was used to add the corresponding concentration of compound to each well (9-10 concentration gradients of compound were obtained by 3-fold dilution). Cell plates were incubated in a carbon dioxide incubator for 5-6 days. NCI-H358, AGS, NCI-H460 and MKN-1 were incubated at 5%, 37° incubator and SW620 was incubated at 0%, 370 incubator. On the day of plate measurement, the 384- or 96-well plates were first equilibrated at room temperature for 10-30 min, then CellTiter Glo reagent (384-well plate: 25 μL; 96-well plate: 100 μL) was added to the 384- or 96-well plate, shaken for 10 min away from light, and incubated for 10 min. The plates were placed into Victor NIVO or ENVIDION reader plates, and XLFit was utilized to plot the pharmacodynamic inhibition curve and calculate the IC50 value. “IC50>10 μM” is denoted by “*”, “10 μM≥IC50≥1 μM” is denoted by “**”, and “1 μM≥IC50>100 nM” is denoted by “***”, “IC50<100 nM” is denoted by “****”
In general terms: In ATP-based viability assays light output follows the ATP content of the culture.

Experiment [2] deals with NCI-H358 human non-small cell lung cancer cell line with KRAS G12C mutation. The experiment can be described thus: Proliferation inhibition on RAS cell lines measured by CTG, NCI-H358. The conditions noted are these: Table 1, NCI-H358 cells, incubated for 6 days, CellTiter Glo, read-out: IC50 (H358 ^b).
From the text: as §1, §2, §3, §4

In experiment [3] the test system is SW620 colon cancer cell with KRAS G12V mutation. The experiment can be described thus: Proliferation inhibition on RAS cell lines measured by CTG, SW620. The conditions noted are these: Table 1, SW620 cells, incubated for 6 days, CellTiter Glo, read-out: IC50 (SW620 ^c).
From the text: as §1, §2, §3, §4

Experiment [4] has as its system NCI-H460 non-small cell lung cancer cell with KRAS Q61H mutation. Nature of the experiment: Proliferation inhibition on RAS cell lines measured by CTG, NCI-H460. The conditions noted are these: Table 1, NCI-H460 cells, incubated for 6 days, CellTiter Glo, read-out: IC50 (NCI-H460 ^d).
From the text: as §1, §2, §3, §4

Experiment [5] has as its system MKN1 wild-type gastric cancer cell with KRAS-amplified. Nature of the experiment: Proliferation inhibition on RAS cell lines measured by CTG, MKN1. The following applies: Table 1, MKN1 cells, incubated for 6 days, CellTiter Glo, read-out: IC50 (MKN1 ^e).
From the text: as §1, §2, §3, §4

Experiment [6] has as its system LS513 colon cancer cell with KRAS G12D mutation. Nature of the experiment: Proliferation inhibition on RAS cell lines measured by CTG, LS513. The conditions noted are these: LS513 cells, incubated for 6 days, CellTiter Glo, read-out: IC50 (LS513^f).
From the text: as §1, §2, §3, §4

Experiment [7] deals with LoVo colon cancer cell with KRAS G13D mutation. Nature of the experiment: Proliferation inhibition on RAS cell lines measured by CTG, LoVo. The conditions noted are these: Table 1, LoVo cells, incubated for 6 days, CellTiter Glo, read-out: IC50 (LoVo^g).
From the text: as §1, §2, §3, §4

Experiment [8] deals with NCI-H441 lung cancer cell with KRAS G12V mutation. Nature of the experiment: Proliferation inhibition on RAS cell lines measured by CTG, NCI-H441. The following applies: NCI-H441 cells, incubated for 6 days, CellTiter Glo.
From the text: as §1, §2, §3, §4

For experiment [9], the system named is Capan-2 pancreatic cancer cell with KRAS G12V mutation. The experiment can be described thus: Proliferation inhibition on RAS cell lines measured by CTG, Capan-2. The conditions noted are these: Homo sapiens, 144 h; Table 2; Capan-2 cells, incubated for 6 days, CellTiter Glo; read-out: IC50 (Capan-2^i).
From the text: as §1, §2, §3, §4

Where [10] appears, read: Homo sapiens, LS-513, 144 h, Table 1.
[11] abbreviates: Homo sapiens, NCI-H441, 144 h, Table 1.
The mark [12] stands for this setting: Homo sapiens, LS-513, 144 h, Table 2.
The mark [13] stands for this setting: Homo sapiens, NCI-H441, 144 h, Table 2.

Turning to `CCc1c(F)ccc2cc(O)cc(-c3ncc4c(N5CC(C)(O)CCN5)nc(OCC56CCCN5CC(F)C6)nc4c3F)c12` (single isomer, unassigned) [Compound 2-1], the IC50 in experiment [1] is less than 100 nM; in experiment [2] it was less than 100 nM; in [3], less than 100 nM; in experiment [4], 1000 to 10000 nM; in experiment [5], less than 100 nM; in experiment [6] (Table 1), less than 100 nM. Besides, the IC50 was less than 100 nM in [7] and 100 to 1000 nM in experiment [8] (Table 1, read-out: IC50 (NCI-H441^h)).

Turning to `CCc1c(F)ccc2cc(O)cc(-c3ncc4c(N5CCCCCN5)nc(OC[C@@]56CCCN5C[C@H](F)C6)nc4c3F)c12` [Compound 3], the IC50 in experiment [1] (Homo sapiens, 120 h) was less than 100 nM; in experiment [2] (Homo sapiens, 144 h) it was less than 100 nM; in experiment [3] (Homo sapiens, SW-620, 144 h), less than 100 nM; in experiment [4] (Homo sapiens, 144 h), 100 to 1000 nM; in experiment [5] (Homo sapiens, MKN-1, 144 h), less than 100 nM.

For `C#Cc1c(F)ccc2cc(O)cc(-c3ncc4c(N5CCOCCN5)nc(OC[C@@]56CCCN5C[C@H](F)C6)nc4c3F)c12` [Compound 7], the IC50 is less than 100 nM in experiment [1]; less than 100 nM in [2]; less than 100 nM in experiment [3]; 1000 to 10000 nM in experiment [4]; 100 to 1000 nM in experiment [5].

`CCc1c(F)ccc2cc(O)cc(-c3ncc4c(N5CCOCCN5)nc(OC[C@@]56CCCN5C[C@H](F)C6)nc4c3F)c12` [Compound 8]: the IC50 in [1] (Homo sapiens, 120 h) was less than 100 nM; in [2] (Homo sapiens, 144 h) it was less than 100 nM; in experiment [3] (Homo sapiens, SW-620, 144 h) it was less than 100 nM; in [4] (Homo sapiens, 144 h) it was 100 to 1000 nM; in [5] (Homo sapiens, MKN-1, 144 h), less than 100 nM.

Consider `C#Cc1c(F)ccc2cc(O)cc(-c3ncc4c(N5CCCCCO5)nc(OC[C@@]56CCCN5C[C@H](F)C6)nc4c3F)c12` [Compound 9], for which the IC50 in experiment [6] (setting [10]) was less than 100 nM; in [7] (Homo sapiens, LoVo, 144 h) it was less than 100 nM; in experiment [8] (setting [11]), less than 100 nM.

As for `CCc1c(F)ccc2cc(O)cc(-c3ncc4c(N5CCCCCO5)nc(OC[C@@]56CCCN5C[C@H](F)C6)nc4c3F)c12` [Compound 10], the IC50 is less than 100 nM in experiment [6] (setting [10]); 100 to 1000 nM in experiment [7] (Homo sapiens, LoVo, 144 h); 100 to 1000 nM in experiment [8] (setting [11]).

On to `C#Cc1c(F)ccc2cccc(-c3ncc4c(N5CCCCCN5)nc(OC[C@@]56CCCN5C[C@H](F)C6)nc4c3F)c12` [Compound 11], for which the IC50 in [6] (setting [10]) is less than 100 nM; in [7] (Homo sapiens, LoVo, 144 h), 100 to 1000 nM; in experiment [8] (setting [11]), 100 to 1000 nM.

On to `C#Cc1c(F)ccc2cc(O)cc(-c3ncc4c(N5CCCN5)nc(OC[C@@]56CCCN5C[C@H](F)C6)nc4c3F)c12` [Compound 18], for which the IC50 in experiment [6] (setting [12]) and in [8] (setting [13]) was 1000 to 10000 nM each time.

Regarding `C#Cc1c(F)ccc2cc(OC(=O)NC)cc(-c3ncc4c(N5CCCCCN5)nc(OC[C@@]56CCCN5C[C@H](F)C6)nc4c3F)c12` [Compound 19], the IC50 in experiment [6] (setting [12]) was less than 100 nM; in [8] (Homo sapiens, 144 h, Table 2) it was 1000 to 10000 nM.

With `C#Cc1c(F)ccc2cc(OC(=O)C(C)C)cc(-c3ncc4c(N5CCCCCN5)nc(OC[C@@]56CCCN5C[C@H](F)C6)nc4c3F)c12` [Compound 23], the IC50 in experiment [6] (setting [12]) and in experiment [8] (setting [13]) was less than 100 nM in each case.

As to `C#Cc1c(F)ccc2cc(O)cc(-c3ncc4c(N5CCCCCN5)nc(OCC56CCCN5CC(=C)C6)nc4c3F)c12` (centres unmarked) [Compound 24], the IC50 was less than 100 nM in experiment [6] (setting [12]) and 100 to 1000 nM in experiment [8] (setting [13]).

Consider `C#Cc1c(F)ccc2cc(O)cc(-c3ncc4c(N5CCCCCN5)nc(OCC56CCCN5CCC6)nc4c3F)c12` [Compound 25], for which the IC50 is less than 100 nM in experiment [6] (setting [12]) and 100 to 1000 nM in experiment [9].

In the case of `C#Cc1c(F)ccc2cc(O)cc(-c3ccc4c(N5CCCCCN5)nc(OC[C@@]56CCCN5C[C@H](F)C6)nc4c3)c12` [Compound 26], the IC50 lay in the range of 100 to 1000 nM in experiment [6] (setting [12]) and 1000 to 10000 nM in experiment [9].

As to `CCc1c(F)ccc2cc(O)cc(-c3ccc4c(N5CCCCCN5)nc(OC[C@@]56CCCN5C[C@H](F)C6)nc4c3)c12` [Compound 27], the IC50 was 100 to 1000 nM in experiment [6] (setting [12]) and 1000 to 10000 nM in [9].

Regarding `CCc1c(F)ccc2cc(O)cc(-c3ncc4c(N5CCCCCN5)nc(OCC5(CN(C)C)CC5)nc4c3F)c12` [Compound 28], the IC50 is less than 100 nM in [6] (setting [12]) and 100 to 1000 nM in experiment [9].

Turning to `C#Cc1c(F)ccc2cc(O)cc(-c3ncc4c(N5CCCCCN5)nc(OCC5(CN6CCOCC6)CC5)nc4c3F)c12` [Compound 29], the IC50 in [6] (setting [12]) and in [9] was less than 100 nM throughout.

As for `C#Cc1c(F)ccc2cc(O)cc(-c3nc(OC)c4c(N5CCCCCN5)nc(OC[C@@]56CCCN5C[C@H](F)C6)nc4c3F)c12` [Compound 33], the IC50 in experiment [6] (setting [12]) was less than 100 nM; in experiment [9], 100 to 1000 nM.

`Oc1cc(-c2ncc3c(N4CCCCCN4)nc(OC[C@@]45CCCN4C[C@H](F)C5)nc3c2F)c2c(Cl)cccc2c1` [Compound 35]: the IC50 in [6] (setting [12]) is less than 100 nM; in experiment [9] it was 100 to 1000 nM.

For `C#Cc1cccc2cc(O)cc(-c3ncc4c(N5CCCCCN5)nc(OC[C@@]56CCCN5C[C@H](F)C6)nc4c3F)c12` [Compound 36], the IC50 in experiment [6] (setting [12]) and in experiment [9] was less than 100 nM throughout.
